Measured values published in publication PMC8509398, “Proteolytic Cleavage of Bioactive Peptides and Protease-Activated Receptors in Acute and Post-Colitis” (International Journal of Molecular Sciences, 2021).

How the values were obtained:
[1] = molecular target: T1, trypsin-3 (Homo sapiens, UniProt P35030); assay: Cleavage of peptides by purified trypsin-3, MALDI-TOF/TOF; conditions: 25 nM protease, 10 µM peptide; for Efficiency of the first cleavage in the peptide, Trypsin-3: 37 °C, 2, 5, 10 and 30 min, stopped with 2% TFA; for Incubation time at which the first cleavage or decrease of the full-length peptide was observed, trypsin-3: 37 °C, time points 2, 5, 10, 30 min
T1 sequence (P35030 1-304): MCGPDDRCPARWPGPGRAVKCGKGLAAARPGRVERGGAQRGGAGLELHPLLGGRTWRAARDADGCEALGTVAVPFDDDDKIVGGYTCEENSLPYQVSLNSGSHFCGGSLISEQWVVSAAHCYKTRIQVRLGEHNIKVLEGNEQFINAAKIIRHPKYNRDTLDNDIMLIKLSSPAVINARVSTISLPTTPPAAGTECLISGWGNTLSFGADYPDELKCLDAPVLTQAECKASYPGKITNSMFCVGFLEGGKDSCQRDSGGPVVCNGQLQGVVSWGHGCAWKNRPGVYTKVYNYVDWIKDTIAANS
Source text: Trypsin-like proteases included in the experiments are trypsin-1, -2 and -3, tryptase (Enzo LifeSciences), thrombin (Sigma-Aldrich) and cathepsin G (Sigma-Aldrich). Trypsin-1, -2 and -3 were produced as described by Koistinen et al. and Wu et al.. Two elastase-like enzymes, neutrophil elastase (Enzo LifeSciences, Farmingdale, NY, USA) and pancreatic elastase I (Sigma-Aldrich) were included as well. All enzymes were from human origin except for pancreatic elastase from porcine pancreas.
Reaction mixtures with purified enzymes were compiled in an identical way. Each mixture contained an equimolar concentration of protease (25 nM based on) and 10 µM peptide of interest and was incubated for 2, 5, 10 and 30 min at 37 °C. Substance P was added as the standard peptide except for the reaction mixtures with substance P or bradykinin as the peptide of interest, where angiotensin II (Bachem) was added.
(§1) The TFA mixtures were thawed on ice and desalted using C18 zip-tips (Merck Millipore®, Burlington, MA, USA) with a capacity of 5 µg protein. Retained peptide fragments were eluted directly on the MALDI target plate. Next, 0.5 µL of a 2.5 mg/mL α-cyano-4-hydroxycinnamic acid (Sigma-Aldrich) matrix solution (in 70% acetonitrile, 0.1% TFA) was spotted on top of the sample. A 6-Peptide mixture Kit (AB Sciex, Framingham, MA, USA) containing bradykinin (2–9), angiotensin I, glu1-fibrinopeptide, ACTH (1–17), ACTH (18–39) and ACTH (7–38) was diluted with matrix and spotted on the plate as well.
MS and MS/MS data for peptide fragment identification were obtained with a MALDI-TOF/TOF instrument (4800 MALDI TOF/TOF™, Applied Biosystems, Waltham, MA, USA) and instrument parameters were set using 4000 Series Explorer™ software. MS spectra were recorded in positive reflector mode in a mass range from 500 to 4000 Da and laser intensity of 4500–4800 Hz. The spectra were calibrated using the calibration mixture mentioned above to a mass tolerance of 0.1 Da. MS/MS spectra were recorded with high-energy collision-induced dissociation and the laser intensity was increased by 10%. Precursor mass m/z 1570.65 (Glu1-Fibrinopeptide from the calibration mixture) was used to calibrate the MS/MS spectra to a mass tolerance of 0.1 Da.
MS and MS/MS spectra were processed using DataExplorer™ software and the obtained output files were uploaded in the MS-PEP data analyzer (https://bioit.shinyapps.io/PARs/ accessed 10/08/2020) for peptide fragment identification. Identified fragments were confirmed using the MS/MS spectra and mMass 5.5.0 by Martin Strohalm. The relative intensities of the fragments were calculated as the ratio of the intensity of the peak of interest to the intensity of the peak of the standard peptide.

[2] = Cleavage of peptides by colonic tissue lysates from TNBS-induced colitis rat model, MALDI-TOF/TOF; conditions: rat colonic lysates; 10 µM peptide, 20 µg/mL protein, 37 °C, up to 30 min, MALDI-TOF/TOF, n = 8 per group
Method: Adult male Sprague–Dawley rats (200–225 g; Charles River, Wilmington, MA, USA) were used in a previously described TNBS-induced acute and post-inflammatory model. Rats were housed at constant room temperature (22 ± 2 °C) and humidity (60%) with two rats per cage, unlimited access to water and food and on a 12 h–12 h light/dark cycle.
After an overnight fast, TNBS colitis was induced using a TNBS-enema (4 mg TNBS; Sigma-Aldrich, 50% ethanol) as described previously. Rats were anesthetized with a mixture of ketamine (35 mg/kg i.p.; Ketalar®, Pfizer, New York City, NY, USA) and xylazine (5 mg/kg i.p.; Rompun®, Bayer, Leverkusen, Germany), and the TNBS-enema or 0.9% saline was administered intrarectally using a flexible catheter (18 G, length 4.5 cm) to colitis and control rats, respectively. Animals were kept in a tail-up position for 1 min and were then allowed to recover in their cages with free access to water and food. […] For the post-colitis group (n = 8), a colonoscopy was performed starting from day 10 and repeated every 4 days until complete mucosal healing was observed. The rats were then sacrificed as well and colonic samples were taken.
Colonic lysates were prepared for studying their effects on cleavage patterns of added peptides with a MALDI-TOF/TOF assay. After sacrifice, a sample of approximately 50 mg of distal colon was taken from each rat. The colonic samples were immediately rinsed with Krebs solution, snap-frozen and stored at −80 °C until further processing. Sample preparation started with crushing the colonic samples on dry ice. Liquid nitrogen was used to prevent the loss of enzymatic activity due to temperature increases and the colon powders were stored at −80 °C for further experiments. […] After centrifugation, the supernatants were collected and used immediately to prepare the reaction mixtures, measure proteolytic activities with fluorogenic substrates and determine the protein content with a Bradford assay.
Colonic lysate was added to a peptide of interest to obtain the reaction mixtures with the colonic samples. Lysate and peptide were diluted so each mixture contained 10 µM peptide of interest and 20 µg/mL protein originating from the colonic tissue. These peptide and protein concentrations were based on research from Loew et al. and O’ Donoghue et al.. The mixtures were incubated at 37 °C for several incubation periods between 5 and 30 min. Afterward, the fragmentation reaction was stopped by adding trifluoroacetic acid (TFA; Alfa Aesar™, ThermoFisher, Waltham, MA, USA) to a final concentration of 2% and standard peptide (substance P, bradykinin or PAR3-based peptide) was added in a final concentration of 10 µM. Standard peptides were selected based on the mass of the peptides of interest. For each sample/peptide combination, a starting point was included as well. Here, TFA was added immediately after mixing the reaction constituents. Samples were stored at −80 °C for further MALDI-TOF/TOF experiments.
as §1
MS and MS/MS data for peptide fragment identification were obtained with a MALDI-TOF/TOF instrument (4800 MALDI TOF/TOF™, Applied Biosystems, Waltham, MA, USA) and instrument parameters were set using 4000 Series Explorer™ software. MS spectra were recorded in positive reflector mode in a mass range from 500 to 4000 Da and laser intensity of 4500–4800 Hz.

Structure (SMILES)	Efficiency of the first cleavage in the peptide, Trypsin-3 [1]	Incubation time at which the first cleavage or decrease of the full-length peptide was observed, trypsin-3 [1] [min]	Processing by colonic samples, in words (comparison of control, post-colitis and acute colitis) [2]
CC[C@H](C)[C@H](NC(=O)[C@H](CO)NC(=O)[C@H](CC(N)=O)NC(=O)[C@H](CC(C)C)NC(=O)[C@H](Cc1ccc(O)cc1)NC(=O)[C@H](CCCCN)NC(=O)[C@H](CCCCN)NC(=O)[C@@H](NC(=O)[C@H](C)NC(=O)[C@H](CCSC)NC(=O)[C@H](CCC(N)=O)NC(=O)[C@H](CCCCN)NC(=O)[C@H](CCCN=C(N)N)NC(=O)[C@H](CC(C)C)NC(=O)[C@H](CCCN=C(N)N)NC(=O)[C@@H](NC(=O)[C@H](Cc1ccc(O)cc1)NC(=O)[C@H](CC(N)=O)NC(=O)[C@H](CC(=O)O)NC(=O)[C@@H](NC(=O)[C@H](Cc1ccccc1)NC(=O)[C@@H](NC(=O)[C@H](C)NC(=O)[C@H](CC(=O)O)NC(=O)[C@H](CO)NC(=O)[C@@H](N)Cc1c[nH]cn1)C(C)C)[C@@H](C)O)[C@@H](C)O)C(C)C)C(=O)N[C@@H](CC(C)C)C(=O)N[C@@H](CC(N)=O)C(N)=O [VIP, Vasoactive intestinal peptide]	+++ (ultrafast processing within 2 min)	2	no differences
CC[C@H](C)[C@H](NC(=O)[C@H](C)NC(=O)[C@H](CC(N)=O)NC(=O)[C@H](CCCCN)NC(=O)[C@H](Cc1ccccc1)NC(=O)[C@H](CC(C)C)NC(=O)[C@@H](NC(=O)[C@@H](NC(=O)[C@H](CC(C)C)NC(=O)[C@@H]1CCCN1C(=O)[C@@H](NC(=O)[C@H](CCC(N)=O)NC(=O)[C@H](CO)NC(=O)[C@H](CCCCN)NC(=O)[C@H](CCC(=O)O)NC(=O)[C@H](CO)NC(=O)[C@@H](NC(=O)[C@H](CCSC)NC(=O)[C@H](Cc1ccccc1)NC(=O)CNC(=O)CNC(=O)[C@@H](N)Cc1ccc(O)cc1)[C@@H](C)O)[C@@H](C)O)C(C)C)[C@@H](C)O)C(=O)N[C@H](C(=O)N[C@@H](CCCCN)C(=O)N[C@@H](CC(N)=O)C(=O)N[C@@H](C)C(=O)N[C@@H](Cc1ccc(O)cc1)C(=O)N[C@@H](CCCCN)C(=O)N[C@@H](CCCCN)C(=O)NCC(=O)N[C@@H](CCC(=O)O)C(=O)O)[C@@H](C)CC [β-endorphin]	−	> 30	cleaved more intensively by proteases in acute colitis samples
